Reference: US6358885B1, “Substituted phenylheterocyclic herbicides” (Mississippi State University, priority 1992, dated 2002)

What was measured:
lambsquarters = assay: Test B preemergence/postemergence greenhouse plant response rating 0 to 10; format: in vivo, Chenopodium album; settings: for Plant response rating, Lambsquarter: 0 to 10 scale
How it was run: (§1)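 Planted seeds are treated preemergence with compound dissolved in a non-phytotoxic solvent, while postemergence applications go onto plants of two to eighteen cm. Plants stay in the greenhouse twelve to sixteen days and are then rated visually relative to controls.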

rice = assay: as above; format: in vivo, Oryza sativa; settings: for Plant response rating, Rice: 0 to 10 scale
How it was run: as §1

soybean = assay: as above; format: in vivo, Glycine max; settings: for Plant response rating, Soybean: 0 to 10 scale
How it was run: as §1

wheat = assay: as above; format: in vivo, Triticum aestivum; settings: for Plant response rating, Wheat: 0 to 10 scale
How it was run: as §1

wild buckwheat [1] = assay: as above; format: in vivo, Polygonum convolvulus; settings: for Plant response rating, Wild buckwheat: 0 to 10 scale
How it was run: as §1

wild oat = assay: as above; format: in vivo, Avena fatua; settings: for Plant response rating, Wild oat: 0 to 10 scale
How it was run: as §1

blackgrass = assay: Test C preemergence/postemergence greenhouse plant response rating 0 to 100; format: in vivo, Alopecurus myosuroides; settings: for Plant response rating, Blackgrass: 125 g/ha, 0 to 100 scale
How it was run: (§2)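 Compounds in non-phytotoxic solvent applied preemergence to sandy loam one day after planting, postemergence at the 1–4 leaf stage, or to ~2.5 cm floodwater over silt loam.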

downy brome = assay: as above; format: in vivo, Bromus tectorum; settings: for Plant response rating Downy Brome: 125 g/ha, 0 to 100 scale
How it was run: as §2

sorghum = assay: as above; format: in vivo, Sorghum bicolor; settings: for Plant response rating, Sorghum: 125 g/ha, 0 to 100 scale
How it was run: as §2

sugar beet = assay: as above; format: in vivo, Beta vulgaris; settings: for Plant response rating, Sugar beet: 125 g/ha, 0 to 100 scale
How it was run: as §2

wild buckwheat [2] = assay: as above; format: in vivo, Polygonum convolvulus; settings: for Plant response rating, Wild buckwheat: 125 g/ha, 0 to 100 scale
How it was run: as §2

barnyardgrass = assay: Test C flood test plant response rating 0 to 100; format: in vivo, Echinochloa crus-galli
How it was run: as §2

CCOCOc1cc(-c2nn3c(c2Cl)CCCC3)c(F)cc1Cl [Compound 59]
Plant response rating, Lambsquarter (lambsquarters; POSTEMERGENCE, Rate 50 g/ha): 10
Plant response rating, Lambsquarter (lambsquarters; PREEMERGENCE, Rate 50 g/ha): 10
Plant response rating (0 to 10 scale), Lambsquarter (lambsquarters; PREEMERGENCE, Rate 200 g/ha): 10
Plant response rating, Lambsquarter (lambsquarters; Rate 200 g/ha, POSTEMERGENCE): 10
Plant response rating, Rice (rice; POSTEMERGENCE, Rate 50 g/ha): 5
Plant response rating, Rice (rice; PREEMERGENCE, Rate 50 g/ha): 0
Plant response rating (0 to 10 scale), Rice (rice; PREEMERGENCE, Rate 200 g/ha): 1
Plant response rating, Rice (rice; Rate 200 g/ha, POSTEMERGENCE): 5
Plant response rating, Soybean (soybean; POSTEMERGENCE, Rate 50 g/ha): 8
Plant response rating, Soybean (soybean; PREEMERGENCE, Rate 50 g/ha): 0
Plant response rating (0 to 10 scale), Soybean (soybean; PREEMERGENCE, Rate 200 g/ha): 4
Plant response rating, Soybean (soybean; Rate 200 g/ha, POSTEMERGENCE): 7
Plant response rating, Wheat (wheat; POSTEMERGENCE, Rate 50 g/ha): 7
Plant response rating, Wheat (wheat; PREEMERGENCE, Rate 50 g/ha): 4
Plant response rating (0 to 10 scale), Wheat (wheat; PREEMERGENCE, Rate 200 g/ha): 4
Plant response rating, Wheat (wheat; Rate 200 g/ha, POSTEMERGENCE): 6
Plant response rating, Wild buckwheat (wild buckwheat [1]; POSTEMERGENCE, Rate 50 g/ha): 10
Plant response rating, Wild buckwheat (wild buckwheat [1]; PREEMERGENCE, Rate 50 g/ha): 10
Plant response rating (0 to 10 scale), Wild buckwheat (wild buckwheat [1]; PREEMERGENCE, Rate 200 g/ha): 10
Plant response rating, Wild buckwheat (wild buckwheat [1]; Rate 200 g/ha, POSTEMERGENCE): 10
Plant response rating, Wild oat (wild oat; POSTEMERGENCE, Rate 50 g/ha): 7
Plant response rating, Wild oat (wild oat; PREEMERGENCE, Rate 50 g/ha): 2
Plant response rating (0 to 10 scale), Wild oat (wild oat; PREEMERGENCE, Rate 200 g/ha): 7
Plant response rating, Wild oat (wild oat; Rate 200 g/ha, POSTEMERGENCE): 7
Plant response rating, Blackgrass (blackgrass; POSTEMERGENCE): 70
Plant response rating (0 to 100), Blackgrass (blackgrass; POSTEMERGENCE, Rate 2 g/ha): 20
Plant response rating, Blackgrass (blackgrass; PREEMERGENCE): 90
Plant response rating (0 to 100), Blackgrass (blackgrass; PREEMERGENCE, Rate 2 g/ha): 0
Plant response rating (0 to 100), Blackgrass (blackgrass; Rate 8 g/ha, POSTEMERGENCE): 30
Plant response rating (0 to 100), Blackgrass (blackgrass; Rate 8 g/ha, PREEMERGENCE): 20
Plant response rating (0 to 100), Blackgrass (blackgrass; Rate 31 g/ha, POSTEMERGENCE): 50
Plant response rating (0 to 100), Blackgrass (blackgrass; Rate 31 g/ha, PREEMERGENCE): 50
Plant response rating Downy Brome (downy brome; POSTEMERGENCE): 90
Plant response rating (0 to 100), Downy Brome (downy brome; POSTEMERGENCE, Rate 2 g/ha): 20
Plant response rating Downy Brome (downy brome; PREEMERGENCE): 60
Plant response rating (0 to 100), Downy Brome (downy brome; PREEMERGENCE, Rate 2 g/ha): 0
Plant response rating (0 to 100), Downy Brome (downy brome; Rate 8 g/ha, POSTEMERGENCE): 50
Plant response rating (0 to 100), Downy Brome (downy brome; Rate 8 g/ha, PREEMERGENCE): 0
Plant response rating (0 to 100), Downy Brome (downy brome; Rate 31 g/ha, POSTEMERGENCE): 70
Plant response rating (0 to 100), Downy Brome (downy brome; Rate 31 g/ha, PREEMERGENCE): 30
Plant response rating, Sorghum (sorghum; POSTEMERGENCE): 70
Plant response rating (0 to 100), Sorghum (sorghum; POSTEMERGENCE, Rate 2 g/ha): 20
Plant response rating, Sorghum (sorghum; PREEMERGENCE): 20
Plant response rating (0 to 100), Sorghum (sorghum; PREEMERGENCE, Rate 2 g/ha): 0
Plant response rating (0 to 100), Sorghum (sorghum; Rate 8 g/ha, POSTEMERGENCE): 40
Plant response rating (0 to 100), Sorghum (sorghum; Rate 8 g/ha, PREEMERGENCE): 0
Plant response rating (0 to 100), Sorghum (sorghum; Rate 31 g/ha, POSTEMERGENCE): 60
Plant response rating (0 to 100), Sorghum (sorghum; Rate 31 g/ha, PREEMERGENCE): 10
Plant response rating, Sugar beet (sugar beet; POSTEMERGENCE): 100
Plant response rating (0 to 100), Sugar beet (sugar beet; POSTEMERGENCE, Rate 2 g/ha): 90
Plant response rating, Sugar beet (sugar beet; PREEMERGENCE): 100
Plant response rating (0 to 100), Sugar beet (sugar beet; PREEMERGENCE, Rate 2 g/ha): 0
Plant response rating (0 to 100), Sugar beet (sugar beet; Rate 8 g/ha, POSTEMERGENCE): 100
Plant response rating (0 to 100), Sugar beet (sugar beet; Rate 8 g/ha, PREEMERGENCE): 30
Plant response rating (0 to 100), Sugar beet (sugar beet; Rate 31 g/ha, POSTEMERGENCE): 100
Plant response rating (0 to 100), Sugar beet (sugar beet; Rate 31 g/ha, PREEMERGENCE): 50
Plant response rating, Wild buckwheat (wild buckwheat [2]; POSTEMERGENCE): 100
Plant response rating (0 to 100), Wild buckwheat (wild buckwheat [2]; POSTEMERGENCE, Rate 2 g/ha): 100
Plant response rating, Wild buckwheat (wild buckwheat [2]; PREEMERGENCE): 100
Plant response rating (0 to 100), Wild buckwheat (wild buckwheat [2]; PREEMERGENCE, Rate 2 g/ha): 0
Plant response rating (0 to 100), Wild buckwheat (wild buckwheat [2]; Rate 8 g/ha, POSTEMERGENCE): 100
Plant response rating (0 to 100), Wild buckwheat (wild buckwheat [2]; Rate 8 g/ha, PREEMERGENCE): 0
Plant response rating (0 to 100), Wild buckwheat (wild buckwheat [2]; Rate 31 g/ha, POSTEMERGENCE): 100
Plant response rating (0 to 100), Wild buckwheat (wild buckwheat [2]; Rate 31 g/ha, PREEMERGENCE): 50
Plant response rating (0 to 100), Barnyardgrass 2 (barnyardgrass; POSTEMERGENCE section, flood test, Rate 2 g/ha): 0
Plant response rating (0 to 100), Barnyardgrass 2 (barnyardgrass; Rate 8 g/ha, under POSTEMERGENCE head (flood test species)): 90
Plant response rating (0 to 100), Barnyardgrass 2 (barnyardgrass; Rate 31 g/ha, under POSTEMERGENCE head (flood test species)): 100
Plant response rating Barnyardgrass 2 (barnyardgrass; flood test species listed under POSTEMERGENCE, 125 g/ha, 0 to 100 scale): 100
